In PubChem BioAssay (NCI):
“And” between values parts separate entries of the source, which are not always exact repeats. Identical values can stand only once.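 Results reflect a 48-hour exposure of cells in 96-well plates to compound at five concentrations. Abbreviation: GI50, concentration required for 50% inhibition of growth. TGI: total growth inhibition.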

Tests used:
Test in all cases: DTP human tumour cell line panel, 48 h
PC-3 prostate = system: PC-3 prostate
UACC-62 melanoma = system: UACC-62 melanoma
HL-60(TB) leukemia = system: HL-60(TB) leukemia
HS 578T breast = system: HS 578T breast
ACHN renal = system: ACHN renal
T-47D breast = system: T-47D breast
NCI-H460 lung = system: NCI-H460 lung
A498 renal = system: A498 renal
UO-31 renal = system: UO-31 renal
RXF 393 renal = system: RXF 393 renal

Structure (SMILES)	GI50 (PC-3 prostate) [µM]	TGI (PC-3 prostate)	GI50 (UACC-62 melanoma) [µM]	TGI (UACC-62 melanoma) [µM]	GI50 (HL-60(TB) leukemia) [µM]	TGI (HL-60(TB) leukemia)	GI50 (HS 578T breast) [µM]	TGI (HS 578T breast)	GI50 (ACHN renal) [µM]	TGI (ACHN renal)	GI50 (T-47D breast) [µM]	TGI (T-47D breast)	GI50 (NCI-H460 lung) [µM]	TGI (NCI-H460 lung)	GI50 (A498 renal) [µM]	TGI (A498 renal)	GI50 (UO-31 renal) [µM]	TGI (UO-31 renal)	GI50 (RXF 393 renal) [µM]	TGI (RXF 393 renal)
Cc1cc(S(=O)(=O)Nc2nc3ccsc3c(=O)n2Cc2ccco2)c(S)cc1Cl	> 100	> 100 µM	53.1	> 100	25.5	> 100 µM	81	> 100 µM	> 100	> 100 µM	> 100	> 100 µM	60.6	> 100 µM	> 100	> 100 µM	> 100	> 100 µM	> 100	> 100 µM
O=C1c2ccccc2S(=O)(=O)N1CSC(=S)N1CCCC1	7.62	> 100 µM	> 75.7	> 100			> 100	> 100 µM	> 100	> 100 µM	> 72.4	> 100 µM	45.4	> 100 µM	> 100	> 100 µM	> 100	> 100 µM	> 100	> 100 µM
N#C/C(=C/C=C(\Cl)c1ccc(Cl)cc1)C(N)=O	2.18	5.55 µM	5.87	20.6			3.07	9.91 µM	2.37	6.39 µM	3.26	26.4 µM	4.65	> 100 µM	13.2	27.7 µM		> 46.8 µM	3.75	> 57.6 µM
Nc1ccc(C#Cc2cncnc2Nc2ccc(OCc3cccc(F)c3)c(Cl)c2)cc1	8.91	> 25 µM	19.4	> 25	5.68	> 25 µM	6.07	24.2 µM	6.87	> 25 µM	6.17	> 25 µM	15.7	> 25 µM	1.7	> 15.4 µM	3.2	> 25 µM	5	> 25 µM
CCCCn1c2c(c3ccccc3c1=O)C(=O)c1ccccc1-2		> 100 µM		> 100		> 100 µM		> 100 µM				> 100 µM				> 100 µM		> 100 µM		
Cc1ccc(-c2ccc(Nc3c4ccccc4nc4ccccc34)cc2)cn1		28.8 µM		11.5				58.3 µM		6.76 µM		5.44 µM		5.3 µM				13.2 µM		
COc1ccc2nc(NCCCNCCO)c3sc4ccc(F)cc4c(=O)c3c2c1	1.56	3.04 µM	1.76	3.29	1.92	3.87 µM	1.6	3.57 µM	1.63	2.99 µM	1.68	3.93 µM	1.53	3.02 µM	1.53	2.98 µM	1.46	2.8 µM	1.26	2.61 µM
N#Cc1c[nH]n2ccnc12		> 100 µM		> 100		> 100 µM		> 100 µM		> 100 µM		> 100 µM		> 100 µM		> 100 µM		> 100 µM		
O=C1C(Cl)=C(Nc2ccc3cn[nH]c3c2)C(=O)c2ccccc21	1.17	2.44 µM	1.5	2.93	1.7	4.45 µM	0.5	3.88 µM	1.33	2.61 µM	1.24	3.27 µM	1.7	4.14 µM	3.05	8.9 µM	1.25	2.51 µM	1.54	2.92 µM
O=C1C=CC(=O)C1(Br)Br		33.1 µM		25.3		49 µM		50.1 µM		17.3 µM		51.6 µM		41.6 µM		27.4 µM		18.7 µM		15.9 µM
O=C1/C(=C/c2ccccc2)SC(=Nc2ccccc2)N1Nc1ccccc1	4.49	> 100 µM	10.3	39.4	10.4	68.9 µM	29	> 100 µM	23	> 100 µM	5.41	> 100 µM	15.9	57.3 µM			7.94	> 100 µM	8.44	30 µM
C=C1C(=O)O[C@H]2[C@H]1CC/C(COC(=O)C(=O)c1c[nH]c3ccc(OC)cc13)=C\CC[C@@]1(C)O[C@@H]21	6.08	11.1 µM	3.21	7.49	5.13	12.5 µM	10.1	40.2 µM	4.21	9.2 µM	6.98	12.4 µM	10.2	24.8 µM			4.6	7.91 µM	3.21	6.84 µM
COc1c2ccccc2c(O)c2c(=O)c(C(=O)O)cn(C)c12	> 100	> 100 µM	24.7	> 100			> 100	> 100 µM	> 100	> 100 µM	> 100	> 100 µM	> 100	> 100 µM	18.8	> 100 µM	> 100	> 100 µM	80.3	> 100 µM
C#CCN1CCN(C(=S)N/N=C(\C)c2ccccn2)CC1	0.0121	2.48 µM and 1.45 µM			0.00195	0.00497 µM and 0.0116 µM	1.94	6.34 µM and 6.02 µM	0.0578	4.41 µM and 6.2 µM		3.6 µM and 4.06 µM		4.17 µM and 2.75 µM	3.31	5.47 µM and 5.21 µM	2.61	4.56 µM and 3.77 µM	3.95	5.46 µM and 3.48 µM
COc1cc(NN=C(c2ccc(O)cc2)c2ccc(O)cc2)c([N+](=O)[O-])cc1[N+](=O)[O-]	14.6	> 100 µM	10.6	22.6	22	> 100 µM			5.23	20.3 µM	1.62	19.2 µM	3.76	21.2 µM	13.2	35.2 µM	10.4	23.9 µM	8.05	22.9 µM
